PubChem BioAssay AID270 (DTP/NCI, 2004)
Values joined by “and” are separate entries in the source; they are usually repeats but may differ in a detail not shown here. Equal entries are not always repeated. Records with an inconclusive call do not appear.

Test system: BDF1 mice, s.c. Lewis lung carcinoma, T/C %
Test: NCI In Vivo Anticancer Drug Screen. Data for tumor model Lewis Lung Carcinoma (subcutaneous) in B6D2F1 (BDF1) mice
Description: The antitumor activity of compounds was measured in mice bearing transplantable tumors. Survival or tumor size were measured and the results are expressed as the measurement made in the treated group (T) divided by the measurement made in the vehicle treated control group (C). The tumor model used in this assay is Lewis Lung Carcinoma (subcutaneous) in B6D2F1 (BDF1) mice

[1] = endpoint: median survival time, dose: 1.56 mg/kg/injection, schedule: Q01DX009 (ip), vehicle: saline, higher = longer survival
[2] = endpoint: median survival time, dose: 3.13 mg/kg/injection, schedule: Q01DX009 (ip), vehicle: saline, higher = longer survival

## CCC[CH2][Sn]1([CH2]CCC)[O]OC(c2ccc(C)cc2)[O]1 (stereo not drawn)
endpoint: median survival time, dose: 0.19 mg/kg/injection, schedule: Q01DX009 (ip), vehicle: saline with Tween-80, higher = longer survival
  T/C: 98 % of control
endpoint: median survival time, dose: 0.75 mg/kg/injection, schedule: Q01DX009 (ip), vehicle: saline with Tween-80, higher = longer survival
  T/C: 107 % of control
endpoint: median survival time, dose: 1.5 mg/kg/injection, schedule: Q01DX009 (ip), vehicle: saline with Tween-80, higher = longer survival
  T/C: 98 % of control
endpoint: median survival time, dose: 3.0 mg/kg/injection, schedule: Q01DX009 (ip), vehicle: saline with Tween-80, higher = longer survival
  T/C: 119 % of control
endpoint: median survival time, dose: 3.13 mg/kg/injection, schedule: Q01DX009 (ip), vehicle: saline with Tween-80, higher = longer survival
  T/C: 121 % of control

## O=C(CCBr)N1CCN(C(=O)CCBr)CC1
endpoint: median survival time, dose: 2.5 mg/kg/injection, schedule: Q01DX009 (ip), vehicle: saline with Tween-80, higher = longer survival
  T/C: 105 % of control
endpoint: median survival time, dose: 5.0 mg/kg/injection, schedule: Q01DX009 (ip), vehicle: saline with Tween-80, higher = longer survival
  T/C: 105 % of control
endpoint: median survival time, dose: 10.0 mg/kg/injection, schedule: Q01DX009 (ip), vehicle: saline with Tween-80, higher = longer survival
  T/C: 109 % of control
endpoint: median survival time, dose: 20.0 mg/kg/injection, schedule: Q01DX009 (ip), vehicle: saline with Tween-80, higher = longer survival
  T/C: 109 % of control
endpoint: median survival time, dose: 40.0 mg/kg/injection, schedule: Q01DX009 (ip), vehicle: saline with Tween-80, higher = longer survival
  T/C: 106 % of control
endpoint: median survival time, dose: 80.0 mg/kg/injection, schedule: Q01DX009 (ip), vehicle: saline with Tween-80, higher = longer survival
  T/C: 102 % of control

## CC1=C2C(=C[C@@](C)(CO)[C@@H]2O)C(=O)[C@](C)(O)C12CC2
endpoint: mean tumor weight, dose: 0.05 mg/kg/injection, schedule: Q01DX011 (ip), vehicle: saline, higher = larger tumour
  T/C: 113 % of control
endpoint: mean tumor weight, dose: 0.1 mg/kg/injection, schedule: Q01DX011 (ip), vehicle: saline, higher = larger tumour
  T/C: 102 % of control
endpoint: mean tumor weight, dose: 0.2 mg/kg/injection, schedule: Q01DX011 (ip), vehicle: saline, higher = larger tumour
  T/C: 92 % of control
endpoint: mean tumor weight, dose: 0.4 mg/kg/injection, schedule: Q01DX011 (ip), vehicle: saline, higher = larger tumour
  T/C: 19 % of control and 41 % of control
endpoint: mean tumor weight, dose: 0.6 mg/kg/injection, schedule: Q01DX011 (ip), vehicle: saline, higher = larger tumour
  T/C: 20 % of control

## CCCCn1ccnc1C
[1]
  T/C: 112 % of control
[2]
  T/C: 99 % of control
endpoint: median survival time, dose: 12.5 mg/kg/injection, schedule: Q01DX009 (ip), vehicle: saline, higher = longer survival
  T/C: 99 % of control
endpoint: median survival time, dose: 25.0 mg/kg/injection, schedule: Q01DX009 (ip), vehicle: saline, higher = longer survival
  T/C: 119 % of control
endpoint: median survival time, dose: 50.0 mg/kg/injection, schedule: Q01DX009 (ip), vehicle: saline, higher = longer survival
  T/C: 98 % of control

## CN[C@H]1CCc2cc(OC)c(OC)c(OC)c2-c2ccc(OC)c(=O)cc21
endpoint: mean tumor weight, dose: 0.63 mg/kg/injection, schedule: Q01DX011 (ip), vehicle: saline, higher = larger tumour
  T/C: 59 % of control
endpoint: mean tumor weight, dose: 1.25 mg/kg/injection, schedule: Q01DX011 (ip), vehicle: saline, higher = larger tumour
  T/C: 85 % of control
endpoint: mean tumor weight, dose: 2.5 mg/kg/injection, schedule: Q01DX011 (ip), vehicle: saline, higher = larger tumour
  T/C: 61 % of control
endpoint: mean tumor weight, dose: 5.0 mg/kg/injection, schedule: Q01DX011 (ip), vehicle: saline, higher = larger tumour
  T/C: 58 % of control and 72 % of control
endpoint: mean tumor weight, dose: 7.0 mg/kg/injection, schedule: Q01DX011 (ip), vehicle: saline, higher = larger tumour
  T/C: 33 % of control

## Nc1nc(=S)c2[nH]cnc2[nH]1
endpoint: median survival time, dose: 0.5 mg/kg/injection, schedule: Q01DX009 (ip), vehicle: Klucel (hydroxypropylcellulose) (HPC), higher = longer survival
  T/C: 108 % of control
endpoint: median survival time, dose: 1.0 mg/kg/injection, schedule: Q01DX009 (ip), vehicle: Klucel (hydroxypropylcellulose) (HPC), higher = longer survival
  T/C: 117 % of control
endpoint: median tumor weight (est.), dose: 0.67 mg/kg/injection, schedule: Q01DX011 (ip), vehicle: alkali diluted with saline, higher = larger tumour
  T/C: 80 % of control
endpoint: median tumor weight (est.), dose: 1.0 mg/kg/injection, schedule: Q01DX011 (ip), vehicle: alkali diluted with saline, higher = larger tumour
  T/C: 24 % of control

## O=NN(CCCl)C(=O)N[C@H]1CCC[C@@H](C(=O)O)C1
endpoint: median survival time, dose: 14.0 mg/kg/injection, schedule: Q01DX001 (ip), vehicle: Klucel (hydroxypropylcellulose) (HPC), higher = longer survival
  T/C: 88 % of control
endpoint: median survival time, dose: 32.0 mg/kg/injection, schedule: Q01DX001 (ip), vehicle: Klucel (hydroxypropylcellulose) (HPC), higher = longer survival
  T/C: 93 % of control

## COc1cc(NS(C)(=O)=O)ccc1Nc1c2ccccc2nc2ccccc12
endpoint: median survival time, dose: 0.13 mg/kg/injection, schedule: Q01DX009 (ip), vehicle: other, higher = longer survival
  T/C: 117 % of control
endpoint: median survival time, dose: 0.5 mg/kg/injection, schedule: Q01DX009 (ip), vehicle: other, higher = longer survival
  T/C: 118 % of control
endpoint: median survival time, dose: 0.78 mg/kg/injection, schedule: Q01DX009 (ip), vehicle: saline, higher = longer survival
  T/C: 96 % of control
endpoint: median survival time, dose: 1.25 mg/kg/injection, schedule: Q01DX011 (ip), vehicle: Klucel (hydroxypropylcellulose) (HPC), higher = longer survival
  T/C: 91 % of control
[1]
  T/C: 100 % of control
endpoint: median survival time, dose: 2.5 mg/kg/injection, schedule: Q01DX011 (ip), vehicle: Klucel (hydroxypropylcellulose) (HPC), higher = longer survival
  T/C: 96 % of control
endpoint: median survival time, dose: 3.12 mg/kg/injection, schedule: Q01DX009 (ip), vehicle: Klucel (hydroxypropylcellulose) (HPC), higher = longer survival
  T/C: 118 % of control
[2]
  T/C: 103 % of control and 107 % of control
endpoint: median survival time, dose: 6.25 mg/kg/injection, schedule: Q01DX009 (ip), vehicle: Klucel (hydroxypropylcellulose) (HPC), higher = longer survival
  T/C: 115 % of control
endpoint: median survival time, dose: 12.5 mg/kg/injection, schedule: Q01DX009 (ip), vehicle: Klucel (hydroxypropylcellulose) (HPC), higher = longer survival
  T/C: 214 % of control
endpoint: median tumor weight (est.), dose: 1.25 mg/kg/injection, schedule: Q01DX011 (ip), vehicle: Klucel (hydroxypropylcellulose) (HPC), higher = larger tumour
  T/C: 88 % of control
endpoint: median tumor weight (est.), dose: 2.5 mg/kg/injection, schedule: Q01DX011 (ip), vehicle: Klucel (hydroxypropylcellulose) (HPC), higher = larger tumour
  T/C: 110 % of control
endpoint: median tumor weight (est.), dose: 5.0 mg/kg/injection, schedule: Q01DX011 (ip), vehicle: Klucel (hydroxypropylcellulose) (HPC), higher = larger tumour
  T/C: 504 % of control

## CCCC(=O)NC1=C(N2CC2)C(=O)C(NC(=O)CCC)=C(N2CC2)C1=O
endpoint: mean tumor weight, dose: 0.8 mg/kg/injection, schedule: Q01DX011 (ip), vehicle: other, higher = larger tumour
  T/C: 81 % of control
endpoint: mean tumor weight, dose: 1.5 mg/kg/injection, schedule: Q01DX011 (ip), vehicle: other, higher = larger tumour
  T/C: 42 % of control
endpoint: mean tumor weight, dose: 3.0 mg/kg/injection, schedule: Q01DX011 (ip), vehicle: other, higher = larger tumour
  T/C: 28 % of control

## CCc1c(CC(=O)O)c2cc(C)ccc2n1Cc1ccc(Cl)cc1
endpoint: mean tumor weight, dose: 12.5 mg/kg/injection, schedule: Q01DX011 (ip), vehicle: saline, higher = larger tumour
  T/C: 72 % of control
endpoint: mean tumor weight, dose: 25.0 mg/kg/injection, schedule: Q01DX011 (ip), vehicle: saline, higher = larger tumour
  T/C: 104 % of control
endpoint: mean tumor weight, dose: 50.0 mg/kg/injection, schedule: Q01DX011 (ip), vehicle: saline, higher = larger tumour
  T/C: 70 % of control

## COc1cc(-c2ccc(Nc3ccccc3C(=O)O)c(OC)c2)ccc1N
endpoint: mean tumor weight, dose: 10.0 mg/kg/injection, schedule: Q01DX011 (ip), vehicle: carboxymethylcellulose (CMC), higher = larger tumour
  T/C: 86 % of control
endpoint: mean tumor weight, dose: 20.0 mg/kg/injection, schedule: Q01DX011 (ip), vehicle: carboxymethylcellulose (CMC), higher = larger tumour
  T/C: 72 % of control
endpoint: mean tumor weight, dose: 40.0 mg/kg/injection, schedule: Q01DX011 (ip), vehicle: carboxymethylcellulose (CMC), higher = larger tumour
  T/C: 37 % of control

## NC(=O)c1ncn(C2OC(CO)C(O)C2O)n1 (stereo not drawn)
endpoint: median survival time, dose: 20.0 mg/kg/injection, schedule: Q01DX009 (ip), vehicle: saline, higher = longer survival
  T/C: 100 % of control
endpoint: median survival time, dose: 40.0 mg/kg/injection, schedule: Q01DX009 (ip), vehicle: saline, higher = longer survival
  T/C: 93 % of control and 107 % of control
endpoint: median survival time, dose: 80.0 mg/kg/injection, schedule: Q01DX009 (ip), vehicle: saline, higher = longer survival
  T/C: 97 % of control and 107 % of control
endpoint: median survival time, dose: 160.0 mg/kg/injection, schedule: Q01DX009 (ip), vehicle: saline, higher = longer survival
  T/C: 118 % of control

## O=C1CC(c2ccc(O)cc2)CC(=O)C1C(C1CC=CCC1)N(CCCl)CCCl (stereo not drawn)
endpoint: median survival time, dose: 25.0 mg/kg/injection, schedule: Q01DX009 (ip), vehicle: Klucel (hydroxypropylcellulose) (HPC), higher = longer survival
  T/C: 122 % of control
endpoint: median survival time, dose: 50.0 mg/kg/injection, schedule: Q01DX009 (ip), vehicle: Klucel (hydroxypropylcellulose) (HPC), higher = longer survival
  T/C: 123 % of control
endpoint: median survival time, dose: 100.0 mg/kg/injection, schedule: Q01DX009 (ip), vehicle: Klucel (hydroxypropylcellulose) (HPC), higher = longer survival
  T/C: 115 % of control
endpoint: median survival time, dose: 200.0 mg/kg/injection, schedule: Q01DX009 (ip), vehicle: Klucel (hydroxypropylcellulose) (HPC), higher = longer survival
  T/C: 111 % of control
endpoint: median survival time, dose: 400.0 mg/kg/injection, schedule: Q01DX009 (ip), vehicle: Klucel (hydroxypropylcellulose) (HPC), higher = longer survival
  T/C: 98 % of control

## O=C1N[C@@H]([C@H]2CC[C@H](Cl)CN2)C(=O)N[C@H]1[C@H]1CC[C@H](Cl)CN1
endpoint: median survival time, dose: 2.7 mg/kg/injection, schedule: Q01DX009 (ip), vehicle: saline, higher = longer survival
  T/C: 102 % of control
endpoint: median survival time, dose: 4.4 mg/kg/injection, schedule: Q04DX003 (ip), vehicle: saline, higher = longer survival
  T/C: 99 % of control
endpoint: median survival time, dose: 6.5 mg/kg/injection, schedule: Q04DX003 (ip), vehicle: saline, higher = longer survival
  T/C: 105 % of control
endpoint: median survival time, dose: 9.0 mg/kg/injection, schedule: Q01DX001 (ip), vehicle: saline, higher = longer survival
  T/C: 91 % of control
endpoint: median survival time, dose: 13.0 mg/kg/injection, schedule: Q01DX001 (ip), vehicle: saline, higher = longer survival
  T/C: 101 % of control
endpoint: median survival time, dose: 20.0 mg/kg/injection, schedule: Q01DX001 (ip), vehicle: saline, higher = longer survival
  T/C: 100 % of control

## CC[C@@H]1O[C@@H]([C@@H]2CC[C@](O)([C@]3(C)CC[C@@H]([C@@H](C)[C@@]4(O)CC[C@H](C)[C@@H](C[C@@]5(O)O[C@@H]([C@@H](C)[C@H](O)C[C@H]6CC[C@H](C)[C@@H]([C@@H](C)C(=O)O)O6)CC[C@@H]5C)O4)O3)O2)CC[C@@]1(C)O
endpoint: median survival time, dose: 0.12 mg/kg/injection, schedule: Q01DX009 (ip), vehicle: saline, higher = longer survival
  T/C: 106 % of control
endpoint: median survival time, dose: 0.25 mg/kg/injection, schedule: Q01DX009 (ip), vehicle: saline, higher = longer survival
  T/C: 110 % of control
endpoint: median survival time, dose: 0.5 mg/kg/injection, schedule: Q01DX009 (ip), vehicle: saline, higher = longer survival
  T/C: 106 % of control
endpoint: median survival time, dose: 1.0 mg/kg/injection, schedule: Q01DX009 (ip), vehicle: saline, higher = longer survival
  T/C: 97 % of control
